Measured values taken from ChEMBL document CHEMBL1130895, “Syntheses of 2-[(3,5-dimethyl-4-methoxypyridyl)alkyl]-benzothiazolidine derivatives as a potential gastric H+/K(+)-ATPase inhibitor” (Bioorg Med Chem Lett, 1998).
pIC50: −log10 of the molar value.

Experiments:
[1] = target: Potassium-transporting ATPase (Homo sapiens) (UniProt P20648+P51164); test: Inhibition of H+/K+ ATPase activity in buffered solution (pH 7.4) at concentration […]; assay type: protein-complex assay
[2] = target: Potassium-transporting ATPase (Homo sapiens, UniProt P20648); test: Inhibition of H+/K+ ATPase activity in buffered solution (pH 7.4); assay type: protein-complex assay

Compound | inhibition [1] [%] | pIC50 [2]
COc1c(C)cnc(CC2Nc3ccccc3S2)c1C (stereo not given) | 58.5 | 
COc1c(C)cnc(CCC2(C)Nc3cc(C)ccc3S2)c1C (stereo not given) | 0 | 
COc1c(C)cnc(CCC2(C)Nc3cc(C(F)(F)F)ccc3S2)c1C (stereo not given) | 84.4 | 4.62
CC1(CCc2ccccn2)Nc2ccccc2S1 (stereo not given) | 0 | 
COc1c(C)cnc(CCC2(C)Nc3ccc(Cl)cc3S2)c1C (stereo not given) | 0 | 
COc1c(C)cnc(CCC2Nc3ccccc3S2)c1C (stereo not given) | 24.6 | 
CCOC(=O)[C@@H]1CSC(CCc2ncc(C)c(OC)c2C)N1 (stereo not given in full) | 19.8 | 
COc1c(C)cnc(CCC2(C)Sc3ccccc3N2C)c1C (stereo not given) | 17 | 
COc1c(C)cnc(C2Nc3ccccc3S2)c1C (stereo not given) | 0 | 
COc1c(C)cnc(CCC2(C)Nc3cc(F)ccc3S2)c1C (stereo not given) | 81 | 4.48
COc1ccc2[nH]c([S+]([O-])Cc3ncc(C)c(OC)c3C)nc2c1 (stereo not given) | 95 | 
COc1c(C)cnc(CCC2(C)Nc3cc(Cl)ccc3S2)c1C (stereo not given) | 20 | < 4.00
COc1c(C)cnc(CCCC2(C)Nc3ccccc3S2)c1C (stereo not given) | 0 | 
COc1c(C)cnc(/C=C/C2(C)Nc3ccccc3S2)c1C (stereo not given) | 61.1 | < 4.00
COc1c(C)cnc(CCC2(C)Nc3ccccc3S2)c1C (stereo not given) | 96.4 | 4.01
